In patent US12043600B2, “Microbiocidal compounds” (SYNGENTA CROP PROTECTION AG, priority 2018, dated 2024) one finds inhibition of growth, pest or weed control and melting point data, which are given here for ten compounds.

In data set [1] the test system is Botryotinia fuckeliana (Botrytis cinerea). In words: Botryotinia fuckeliana (Botrytis cinerea)/Liquid Culture (Gray Mould). The data set is classed as cell-based. The settings on record: liquid culture, compared to untreated control. Here is the method:
Conidia of the fungus from cryogenic storage are directly mixed into nutrient broth (Vogels broth). After placing a (DMSO) solution of test compound into a microtiter plate (96-well format), the nutrient broth containing the fungal spores is added.

Data set [2] has as its system Glomerella lagenarium (Colletotrichum lagenarium). In words: Glomerella lagenarium (Colletotrichum lagenarium)/Liquid Culture (Anthracnose). The following applies: Colletotrichum orbiculare, liquid culture, compared to untreated control. The data set is classed as cell-based.
In data set [3] the test system is Blumeria graminis f. sp. tritici (Erysiphe graminis f. sp. tritici). Nature of the data set: Blumeria graminis f. sp. tritici/Wheat/Leaf Disc Preventative (Powdery Mildew on Wheat). The following applies: foliar, wheat leaf disc preventative, compared to untreated control. The data set is classed as in vivo. How it is done: Wheat leaf segments cv. Kanzler are placed on agar in a multiwell plate (24-well format) and sprayed with the formulated test compound diluted in water. The leaf disks are inoculated by shaking powdery mildew infected plants above the test plates 1 day after application. The inoculated leaf disks are incubated at 20° C. and 60% rh under a light regime of 24 h darkness followed by 12 h light/12 h darkness in a climate chamber and the activity of a compound is assessed as percent disease control compared to untreated when an appropriate level of disease damage appears on untreated check leaf segments (6-8 days after application).

Data set [4] concerns Monographella nivalis (Microdochium nivale). In words: Monographella nivalis (Microdochium nivale)/Liquid Culture (Foot Rot Cereals). The class given is cell-based. The settings on record: liquid culture, compared to untreated control. How it is done:
(§1) Conidia of the fungus from cryogenic storage are directly mixed into nutrient broth (PDB potato dextrose broth). After placing a (DMSO) solution of test compound into a microtiter plate (96-well format), the nutrient broth containing the fungal spores is added.

Data set [5] deals with Mycosphaerella arachidis (Cercospora arachidicola). Nature of the data set: Mycosphaerella arachidis (Cercospora arachidicola)/Liquid Culture (Early Leaf Spot). The class given is cell-based. The settings on record: liquid culture, compared to untreated control. How it is done:
as §1

Data set [6] concerns Phakopsora pachyrhizi. In words: Phakopsora pachyrhizi/Soybean/Preventative (Soybean Rust). The settings on record: 288 h. The class given is in vivo.
In data set [7] the test system is Puccinia recondita f. sp. tritici. In words: Puccinia recondita f. sp. tritici/Wheat/Leaf Disc Preventative (Brown Rust). The class given is in vivo. The following applies: foliar, 200 ppm, wheat leaf disc preventative, compared to untreated control, read-out: control of Puccinia recondita f. sp. tritici.
Data set [8] relates to Mycosphaerella graminicola (Septoria tritici). Nature of the data set: Mycosphaerella graminicola (Septoria tritici)/Liquid Culture (Septoria Blotch). The class given is cell-based. The settings on record: Zymoseptoria tritici; 20 ppm; liquid culture; compared to untreated control. Here is the method:
Conidia of the fungus from cryogenic storage are directly mixed into nutrient broth (PDB potato dextrose broth). After placing a (DMSO) solution of test compound into a microtiter plate (96-well format), the nutrient broth containing the fungal spores is added. […] The data are presented as the percentage of disease control of each compound for the biological tests against G. lagenarium (Example B3), P. recondita preventative (Example B13), P. teres (Example B15) and M. graminicola (Example B19) as described above. The testing rates of each biological test is specifically described in table C1 below.

Data set [9] deals with Phytophthora infestans. Nature of the data set: whole plant or invertebrate. The class given is in vivo. The settings on record: in Solanum lycopersicum, foliar, read-out: control of Phytophthora infestans.
Data set [10] has as its system Phaeosphaeria nodorum (Septoria nodorum). In words: Phaeosphaeria nodorum (Septoria nodorum)/Wheat/Leaf Disc Preventative (Glume Blotch). The class given is in vivo. The settings on record: Parastagonospora nodorum, foliar, wheat leaf disc preventative, compared to untreated control. Here is the method: Wheat leaf segments cv. Kanzler are placed on agar in a multiwell plate (24-well format) and sprayed with the formulated test compound diluted in water. The leaf disks are inoculated with a spore suspension of the fungus 2 days after application. The inoculated test leaf disks are incubated at 20° C. and 75% rh under a light regime of 12 h light/12 h darkness in a climate cabinet and the activity of a compound is assessed as percent disease control compared to untreated when an appropriate level of disease damage appears in untreated check leaf disks (5-7 days after application).

Data set [11] concerns Plasmopara viticola. In words: whole plant or invertebrate. The class given is in vivo. The settings on record: foliar, read-out: control of Plasmopara viticola.
In data set [12] the test system is Puccinia recondita f. sp. tritici. In words: Puccinia recondita f. sp. tritici/Wheat/Leaf Disc Curative (Brown Rust). The data set is classed as in vivo. The settings on record: foliar, wheat leaf disc curative, compared to untreated control. Here is the method:
Wheat leaf segments cv. Kanzler are placed on agar in multiwell plates (24-well format). The leaf segments are inoculated with a spore suspension of the fungus. Plates are stored in darkness at 19° C. and 75% rh. The formulated test compound diluted in water is applied 1 day after inoculation. The leaf segments are incubated at 19° C. and 75% rh under a light regime of 12 h light/12 h darkness in a climate cabinet and the activity of a compound is assessed as percent disease control compared to untreated when an appropriate level of disease damage appears in untreated check leaf segments (6-8 days after application).

The test system of data set [13] is Magnaporthe grisea (Pyricularia oryzae). Nature of the data set: whole plant or invertebrate. The data set is classed as in vivo. The settings on record: foliar, read-out: control of Magnaporthe grisea.
[14] abbreviates: foliar, soybean leaf disc preventative, compared to untreated control, read-out: control of Phakopsora pachyrhizi.

Where two headings read alike, the source gives them in different places. Where only a bound is given, the exact number is not on record here.

`CCc1ccn(-c2ccc(C)c(O/C(=C\OC)C(=O)OC)c2)n1` [Compound E-91, methyl (Z)-2-[5-(3-ethylpyrazol-1-yl)-2-methyl-phenoxy]-3-methoxy-prop-2-enoate]: the inhibition of growth at 20 ppm in data set [1], in data set [2], in [4], in data set [5] and in data set [8] was not below 80% each time. The figures for the pest or weed control at 200 ppm in [3], in data set [6] (setting [14]) and in [7] were not below 80%, not below 50% and not below 80%, respectively.

`CO/C=C(\Oc1cc(-n2ccc(C3CC3)n2)ccc1Br)C(=O)OC` [Compound E-97, methyl (Z)-2-[2-bromo-5-(3-cyclopropylpyrazol-1-yl)phenoxy]-3-methoxy-prop-2-enoate]: the inhibition of growth at 20 ppm in data set [1], in data set [2], in data set [4], in data set [5] and in data set [8] was not below 80% throughout. Also, the pest or weed control at 200 ppm in data set [3] was not below 80%; in data set [6] (setting [14]), not below 50%; in data set [9] it was not below 80%; in data set [7] it was not below 80%.

As to `CO/C=C(\Oc1cc(-n2cc(Cl)c(C(C)C)n2)ccc1C)C(=O)OC` [Compound E-11, methyl (Z)-2-[5-(4-chloro-3-isopropyl-pyrazol-1-yl)-2-methyl-phenoxy]-3-methoxy-prop-2-enoate], the melting point was 95 to 100 °C. Besides, the pest or weed control at 200 ppm in data set [10] is not below 80%. Besides, in [4], the inhibition of growth at 20 ppm is not below 80%. Also, in data set [5], the inhibition of growth at 20 ppm is not below 80%. Further, the pest or weed control at 200 ppm in [11] was not below 80%. This compound also displayed a pest or weed control at 200 ppm in [12] not below 80%. For the same compound, in [7], the pest or weed control at 200 ppm is not below 80%. Moreover, the pest or weed control at 200 ppm in data set [13] is not below 80%. The same compound displayed an inhibition of growth at 20 ppm in data set [8] not below 80%.

`CO/C=C(\Oc1cc(-n2ncc(C(F)(F)F)n2)ccc1C)C(=O)OC` [Compound F-6, methyl (Z)-3-methoxy-2-[2-methyl-5-[4-(trifluoromethyl)triazol-2-yl]phenoxy]prop-2-enoate]: the melting point is 107 to 109 °C. The same compound gave an inhibition of growth at 20 ppm in data set [2] not below 80%. In [3], this compound came in with a pest or weed control at 200 ppm not below 80%. The pest or weed control at 200 ppm in data set [10] is not below 80%. The inhibition of growth at 20 ppm in [4] was not below 80%. For the same compound, the inhibition of growth at 20 ppm in data set [5] was not below 80%. Moreover, the pest or weed control at 0.6 ppm in data set [6] (Phakopsora pachyrhizi (Soybean rust), 0.6 ppm) was determined as 0%. For the same compound, the pest or weed control at 2 ppm in data set [6] (Phakopsora pachyrhizi (Soybean rust), 2 ppm) was found to be 0%. This compound also registered a pest or weed control at 6 ppm in [6] (Phakopsora pachyrhizi (Soybean rust), 6 ppm) of 20%. The compound further displayed a pest or weed control at 20 ppm in data set [6] (Phakopsora pachyrhizi (Soybean rust), 20 ppm) of 80%. In data set [6] (Phakopsora pachyrhizi (Soybean rust), 60 ppm), this compound had a pest or weed control at 60 ppm of 100%. Moreover, in data set [6] (Phakopsora pachyrhizi (Soybean rust), read-out: control (%)), the pest or weed control at 200 ppm worked out at 100%. Further, the pest or weed control at 200 ppm in data set [9] is not below 80%. In addition, the pest or weed control at 200 ppm in data set [11] was not below 80%. Moreover, in [13], the pest or weed control at 200 ppm is not below 80%. The inhibition of growth at 20 ppm in data set [8] is not below 80%.

The compound `CO/C=C(\Oc1cc(-n2ccc(C3CCCCC3)n2)cc(C)c1C)C(=O)OC` [Compound E-110, methyl (Z)-2-[5-(3-cyclohexylpyrazol-1-yl)-2,3-dimethyl-phenoxy]-3-methoxy-prop-2-enoate] yielded a melting point of 90 to 93 °C. In data set [2], this compound displayed an inhibition of growth at 20 ppm not below 80%. In data set [10], this compound had a pest or weed control at 200 ppm not below 80%. The compound also returned an inhibition of growth at 20 ppm in data set [4] not below 80%. Also, the inhibition of growth at 20 ppm in data set [5] is not below 80%. Also, the pest or weed control at 200 ppm in data set [9] was not below 80%. In addition, in [11], the pest or weed control at 200 ppm was not below 80%. Further, in data set [12], the pest or weed control at 200 ppm is not below 80%. For the same compound, the pest or weed control at 200 ppm in [7] was not below 80%. Moreover, the pest or weed control at 200 ppm in data set [13] was not below 80%. This compound also came in with an inhibition of growth at 20 ppm in data set [8] not below 80%.

The compound `CO/C=C(\Oc1cc(-n2ccc(COC)n2)ccc1C)C(=O)OC` [Compound E-77, methyl (Z)-3-methoxy-2-[5-[3-(methoxymethyl)pyrazol-1-yl]-2-methyl-phenoxy]prop-2-enoate] registered a melting point of 107 to 110 °C. This compound yielded an inhibition of growth at 20 ppm in data set [2] not below 80%. For the same compound, in [3], the pest or weed control at 200 ppm is not below 80%. In addition, the inhibition of growth at 20 ppm in [4] is not below 80%. The inhibition of growth at 20 ppm in data set [5] is not below 80%. For the same compound, in [6] (setting [14]), the pest or weed control at 200 ppm was not below 50%. In addition, the pest or weed control at 200 ppm in data set [11] was not below 80%. The pest or weed control at 200 ppm in data set [12] is not below 80%. For the same compound, in data set [7], the pest or weed control at 200 ppm was not below 80%. The inhibition of growth at 20 ppm in [8] was not below 80%.

Consider `CO/C=C(\Oc1cc(-n2ccc(C3CC3(F)F)n2)ccc1C)C(=O)OC` (centres unmarked) [Compound E-26, methyl (Z)-2-[5-[3-(2,2-difluorocyclopropyl)pyrazol-1-yl]-2-methyl-phenoxy]-3-methoxy-prop-2-enoate], for which the inhibition of growth at 20 ppm in data set [2], in data set [4], in data set [5] and in data set [8] was not below 80% each time. For the same compound, the pest or weed control at 200 ppm in data set [3], in [10], in data set [9], in [11], in [12] and in [7] was not below 80% throughout. Also, the pest or weed control at 200 ppm in data set [13] is not below 80%.

For `CO/C=C(\Oc1cc(-n2cc(C#N)cn2)ccc1C)C(=O)OC` [Compound E-55, methyl (Z)-2-[5-(4-cyanopyrazol-1-yl)-2-methyl-phenoxy]-3-methoxy-prop-2-enoate], the inhibition of growth at 20 ppm in data set [1], in data set [4], in data set [5] and in data set [8] was not below 80% in each case. Further, in data set [7], the pest or weed control at 200 ppm was not below 80%.

`CO/C=C(\Oc1cc(-n2ccc(C)n2)c(Cl)cc1C)C(=O)OC` [Compound E-28, methyl (Z)-2-[4-chloro-2-methyl-5-(3-methylpyrazol-1-yl)phenoxy]-3-methoxy-prop-2-enoate]: the inhibition of growth at 20 ppm in data set [2], in [4], in [5] and in data set [8] was not below 80% in each case. The pest or weed control at 200 ppm in data set [3], in [11], in data set [12] and in [7] was not below 80% each time.

As for `CO/C=C(\Oc1cc(-n2ccc(C3CCCCC3)n2)c(Cl)cc1C)C(=O)OC` [Compound E-115, methyl (Z)-2-[4-chloro-5-(3-cyclohexylpyrazol-1-yl)-2-methyl-phenoxy]-3-methoxy-prop-2-enoate], the melting point lay within 127 to 129 °C. In addition, in data set [2], the inhibition of growth at 20 ppm was not below 80%. Further, in data set [3], the pest or weed control at 200 ppm is not below 80%. Further, in data set [4], the inhibition of growth at 20 ppm was not below 80%. This compound also yielded an inhibition of growth at 20 ppm in data set [5] not below 80%. Also, the pest or weed control at 200 ppm in data set [12] is not below 80%. In addition, the pest or weed control at 200 ppm in data set [7] was not below 80%. This compound gave an inhibition of growth at 20 ppm in data set [8] not below 80%.

In general, inhibition of growth refers to the change of the read-out against control, counted positive when it falls. High values mean strong suppression, low ones little suppression. One may read the melting point as the temperature of the solid-liquid transition.
